Like-named read-outs stand apart in the source and are kept apart here.
Legend:
GR = target: T1, GR (Homo sapiens, UniProt P04150); experiment: GR radioligand binding assay, competition with [3H]Dex in K562 cells
T1 construct: endogenous in cells; host or cells: K562
T1 sequence (P04150 1-777): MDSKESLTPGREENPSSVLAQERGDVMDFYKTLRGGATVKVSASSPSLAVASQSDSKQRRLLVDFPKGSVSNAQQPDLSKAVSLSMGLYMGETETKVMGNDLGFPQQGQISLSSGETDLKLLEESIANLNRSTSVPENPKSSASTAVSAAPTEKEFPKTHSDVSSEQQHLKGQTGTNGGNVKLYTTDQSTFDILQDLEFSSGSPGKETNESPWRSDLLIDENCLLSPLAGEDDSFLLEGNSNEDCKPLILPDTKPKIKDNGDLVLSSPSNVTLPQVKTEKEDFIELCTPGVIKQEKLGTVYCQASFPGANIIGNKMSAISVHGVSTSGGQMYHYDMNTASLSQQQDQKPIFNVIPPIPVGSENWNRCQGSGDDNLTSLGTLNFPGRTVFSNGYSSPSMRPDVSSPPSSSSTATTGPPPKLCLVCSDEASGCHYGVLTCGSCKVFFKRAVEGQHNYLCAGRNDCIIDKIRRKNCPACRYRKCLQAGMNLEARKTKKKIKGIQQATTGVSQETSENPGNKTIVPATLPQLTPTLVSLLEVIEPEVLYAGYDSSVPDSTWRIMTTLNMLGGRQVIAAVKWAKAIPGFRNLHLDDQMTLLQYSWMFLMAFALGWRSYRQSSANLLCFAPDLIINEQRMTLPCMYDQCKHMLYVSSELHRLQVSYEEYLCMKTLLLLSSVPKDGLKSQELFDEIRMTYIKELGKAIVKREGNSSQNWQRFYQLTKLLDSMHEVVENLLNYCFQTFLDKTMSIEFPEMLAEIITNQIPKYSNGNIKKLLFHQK
Protocol: (A,B). […] The stability of the complex was simulated using molecular dynamics in the GROMACS program. (C) GR binding affinity was estimated using a radioligand binding assay. […] Cell lysate radioactivity was measured using a RackBeta 1215 LC (LKB Wallac, Turku, Finland) spectrometer for 4 min. […] The experiments were performed in triplicate (n = 3).
After 90 min of incubation, the cells were washed twice by centrifugation in cold serum-free medium (1500 rpm, 5 min). The cells were then lysed with RIPA buffer (50 mM Tris (pH 8.0), 150 mM NaCl, 1 mM ethylenediaminetetraacetic acid, 0.1% sodium dodecyl sulfate, 0.5% sodium deoxycholate, 1% triton-X100, 10% glycerin, and protease inhibitor) for 20 min. Lysates were transferred to scintillation liquid, and radioactivity was measured using a RackBeta 1215 LC spectrometer for 4 min. […] IC50 was determined using GraphPad Prism software, Ver.7.0. […] “Top” meant the highest value in dpm and was equal to 100%, while the “bottom” was considered as the lowest value (0%). […] The IC50 values for each ligand were determined by plotting these curves. The experiments were performed in triplicate.

[1] = tested on: GR phosphorylated by Ser211 in K562 and Granta cells; experiment: Western blot of nuclear phospho-GR (Ser211); type: cell-based; conditions: 10 h; Dex 10 µM, 4S-C2 50 µM, 8S-E3 50 µM, 10S-E2 15 µM, 13S-G2 25 µM
Protocol: (§1) Figure 3 Effects of synephrine derivatives on GR transactivation in Granta lymphoma and K562 leukemia cells. (A) Q-PCR analysis of FKBP51, GILZ, and DDIT4 mRNA expression in K562 and Granta cells. […] The Q-PCR results were normalized to the expression of the housekeeping gene RPL27 and are presented as fold changes compared to the control. The mean ± SD was calculated for three individual samples/condition (n = 3). Statistically significant differences compared to the control: * p < 0.05, ** p < 0.01. (B) The levels of the nuclear fraction of phospho-GR (Ser211) were determined using Western blot analysis (n = 3; characteristic images are presented in the figure). Histone H3 was used as a loading control.
Western blot analysis was performed as previously described. Proteins were resolved using SDS-PAGE. Membranes were blocked with 5% nonfat milk solution and then incubated with primary antibodies against phosphorylated GR (pGR, Ser211) (“Santa Cruz Biotechnology”, Santa Cruz, CA, USA) overnight at 4 °C. To verify equal protein loading and adequate transfer, the membranes were probed with Histone H3 antibodies (“Cell Signaling”, Boston, MA, USA). Goat anti-rabbit IgGs (“Jackson Immuno Research”, West Grove, PA, USA) were used as secondary antibodies. Signals were detected using ECL reagent and an ImageQuant LAS4000 system (“GE HealthCare”, Chicago, IL, USA). ImageJ 1.54h software was used for densitometry. The experiments were performed in triplicate.
7 K562, pGR nuclear 5 Granta, pGR nuclear
Supplementary Figure S 22. Quantification of Western blot analysis. K562 and Granta cells […]
μM) and 13S-G2 (25 μ M) for 10 h. Quantification of Western blot anal ysis of p- GR protein levels was done usin g Im a ge J f ree so ftwar e. Statisticall y significant diff eren ces as compared to control: […]

[2] = tested on: NF-kB activity in K562 cells; experiment: NF-kB.Luc reporter assay in K562 cells; type: cell-based; conditions: 5 h, 4S-C2 10 µM
Protocol: (§2) We analyzed GR TR function using an NF-kB.Luc reporter assay with the irritating inflammatory agent phorbol 13-acetate 12-myristate (TPA) as an inducer of NF-kB signaling and positive control.
Figure 4 Effects of synephrine derivatives on GR transrepression in Granta lymphoma and K562 leukemia cells. (A) K562 and Granta cells stably infected with the lentiviruses bearing the NF-kB luciferase reporter. Cells were incubated for 5 h with the solvent (control), TPA (5 ng/mL), 4S-C2 (10 µM), 8S-E3 (10 µM), 10S-E2 (1 µM), or 13S-G2 (1 µM). Luciferase activity was determined as described in the Materials and Methods section. (B) IL1-α and IL6 mRNA expression in K562 and Granta cells. […] The mean ± SD was calculated for three individual samples/condition (n = 3). […]
Lentiviral stocks were generated using the lentiviral expression vector NF-kB. […] The infection efficiency exceeded 90% (tracked by GFP fluorescence).
(§3) Cells (10^4 cells/well in a 24-well plate), stably expressing Firefly Luciferase under the NF-kB promoter, were treated for 5 h with TPA (12-O-tetradecanoylphorbol-13-acetate, Boston, MA, USA, 10 ng/mL), 4S-C2 (10 µM), 8S-E3 (10 µM), 10S-E2 (1 µM), 13S-G2 (1 µM), or the vehicle. Luciferase activity was measured as described using a commercial Luciferase Assay (“Promega”, Madison, WI, USA) and Luminometer TD 20/20 (“Turner Design Instruments”, San Jose, CA, USA). […]

[3] = tested on: NF-kB activity in Granta cells; experiment: NF-kB.Luc reporter assay in Granta cells; type: cell-based; conditions: 5 h, 4S-C2 10 µM, 10S-E2 1 µM
Protocol: as §2
Figure 4 Effects of synephrine derivatives on GR transrepression in Granta lymphoma and K562 leukemia cells. (A) K562 and Granta cells stably infected with the lentiviruses bearing the NF-kB luciferase reporter. Cells were incubated for 5 h with the solvent (control), TPA (5 ng/mL), 4S-C2 (10 µM), 8S-E3 (10 µM), 10S-E2 (1 µM), or 13S-G2 (1 µM). Luciferase activity was determined as described in the Materials and Methods section. (B) IL1-α and IL6 mRNA expression in K562 and Granta cells. Q-PCR results were normalized to the expression of the housekeeping gene RPL27 and are presented as the fold change compared to the control. The mean ± SD was calculated for three individual samples/condition (n = 3). Statistically significant differences compared to the control: * p < 0.05, ** p < 0.01.
Lentiviral stocks were generated using the lentiviral expression vector NF-kB. Luc was encoded with Firefly Luciferase reporters with the NF-kB-responsive promoter of minimal CMV promoter as a control (“System Bioscience”, Moutain View, CA, USA), along with packing plasmids GAG, REV, and VSVg. HEK-293T cells were transfected with the abovementioned plasmids using TurboFect reagent (“Thermo Scientific”, Waltham, MA, USA) according to the manufacturer’s protocol. […] The infection efficiency exceeded 90% (tracked by GFP fluorescence).
as §3

[4] = tested on: FKBP51, GILZ, DDIT4 mRNA expression in K562 and Granta cells; experiment: Q-PCR of GR transactivation marker genes; type: cell-based; conditions: 4 h (FKBP51, GILZ) or 24 h (DDIT4); Dex 10 µM, 10S-E2 0.1 µM; vs control
Source text: Q-PCR results were confirmed by Western blot analysis of the level of GR phosphorylated by Ser211, known as a crucial protein modification for GR TA realization because of its binding to short cysteine-rich fragments of the coactivator CREB-binding protein [41].
as §1
Total RNA isolation from cell cultures and murine bones, reverse transcription, and Q-PCR were performed as described in [36]. Primers were designed using NCBI Primer-BLAST https://www.ncbi.nlm.nih.gov/tools/primer-blast/, accessed on 25 August 2025 (Supplementary Table S1). Results were normalized to the expression of the housekeeping RPL27 и Rpl27 genes. The experiments were performed in triplicate.

[5] = tested on: leukemia and lymphoma cells (Granta, K562); set-up: method as in PMID 39858397; conditions: leukemia and lymphoma cells; read-out: cell viability IC50; cited from earlier work

Row | SMILES | IC50 (GR) [µM] | GR phosphorylation level at Ser211 [1] | effect on NF-kB activity [2] | effect on NF-kB activity [3] | IC50 (GR; K562 cells, 0.5 µM [3H]Dex, 90 min, n = 3) [µM] | expression of TA marker genes FKBP51, GILZ, DDIT4 [4] | IC50 [5] [µM]
1 | CCCCCCNCC(O)c1ccc(OC)cc1 (stereo not drawn) [4S-C2, 2-(hexylamino)-1-(4-methoxyphenyl)ethanol] | 3.21 | weak increase | induced it | significantly decreased |  |  | 
2 | CNCC(Cl)c1ccc(OC(C)=O)cc1 (stereo not drawn) [CpdA, reference compound] |  |  |  |  | 2.84 |  | 
3 | CCCCCCNCC(O)c1ccc([N+](=O)[O-])cc1 (stereo not drawn) [13S-G2, 2-(hexylamino)-1-(4-nitrophenyl)ethanol] | 0.69 | weak increase |  |  |  | did not increase the expression | 13 to 26

Source: PMC12691742, “Anti-Cancer Outcome of Glucocorticoid Receptor Transrepression by Synephrine Derivatives in Hematological Malignancies” (International Journal of Molecular Sciences, 2025)
